Assays:
crabgrass [1] = assay: Test Example 2: soil surface treatment, upland pot test; type: in vivo, Digitaria sanguinalis L.; details: active ingredient 500 g/ha, observed 20th to 28th day
Summary of the method: (§1)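 Pre-emergence soil-surface spray, 1 d after sowing; 1/170,000 ha pots, upland soil; WP or EC formulation, set a.i. rate, 1,500 L/ha water; visual growth-control score 0–100% at days 20–28 post-treatment.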

soybean [2] = assay: Test Example 1: foliage treatment, upland pot test; type: in vivo, Glycine max Merr.; details: crop, active ingredient 500 g/ha, observed 18th to 23rd day, 0 = non-treated, 100 = complete kill
Summary of the method: (§2)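 Pots of upland field soil were sown and sprayed post-emergence at soybean 0.1–0.4, wheat 1.3–2.4, rice 1.2–2.6 and barnyardgrass 1.3–2.8 leaf stages. Formulations were diluted in water at 500 L/ha with 0.1% (v/v) spreader. Growth control (0 = untreated, 100 = complete kill) was judged by eye 18–23 days later.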

redroot pigweed [3] = assay: Test Example 2: soil surface treatment, upland pot test; type: in vivo, Amaranthus retroflexus L.; details: active ingredient 500 g/ha, observed 20th to 28th day
Summary of the method: as §1

velvetleaf [4] = assay: as above; type: in vivo, Abutilon theophrasti MEDIC.; details: active ingredient 500 g/ha, observed 20th to 28th day
Summary of the method: as §1

green foxtail [5] = assay: as above; type: in vivo, Setaria viridis L.; details: active ingredient 500 g/ha, observed 20th to 28th day
Summary of the method: as §1

crabgrass [6] = assay: Test Example 1: foliage treatment, upland pot test; type: in vivo, Digitaria sanguinalis L.; details: active ingredient 500 g/ha, observed 18th to 23rd day, 0 = non-treated, 100 = complete kill
corn [7] = assay: Test Example 1: foliage treatment, upland pot test; type: in vivo, Zea mays L.; details: crop, active ingredient 500 g/ha, observed 18th to 23rd day, 0 = non-treated, 100 = complete kill
Summary of the method: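 In this upland pot foliage test, corn plants at 2.1 to 3.2 leaf stages were sprayed by a small size sprayer. The spray was a conventionally formulated wettable powder or emulsifiable concentrate weighed to a set active ingredient amount, diluted in water at 500 L/ha, plus 0.1% (v/v) agricultural spreader. Visual assessment on days 18 to 23 gave growth controlling degree (%), where 0 equals untreated and 100 means complete kill.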

velvetleaf [8] = assay: Test Example 1: foliage treatment, upland pot test; type: in vivo, Abutilon theophrasti MEDIC.; details: active ingredient 500 g/ha, observed 18th to 23rd day, 0 = non-treated, 100 = complete kill
barnyardgrass [9] = assay: Test Example 2: soil surface treatment, upland pot test; type: in vivo, Echinochloa crus-galli L.; details: active ingredient 500 g/ha, observed 20th to 28th day
Summary of the method: as §1

rice [10] = assay: Test Example 1: foliage treatment, upland pot test; type: in vivo, Oryza sativa L.; details: crop, active ingredient 500 g/ha, observed 18th to 23rd day, 0 = non-treated, 100 = complete kill
Summary of the method: as §2

japanese bulrush = assay: Test Example 3: paddy pot test, application under submerged conditions; type: in vivo, Scirpus juncoides; details: submerged application at 0.5 leaf stage, visually observed 14 days after application, 0 = non-treated, 100 = complete kill
Summary of the method: (§3)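 After sowing seeds and planting wapato tubers in flooded paddy soil, an aqueous dilution of the formulated compound was added to the 3–4 cm flood water at early leaf stage. Percent growth control relative to the untreated plot was assessed visually on day 14.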

barnyardgrass [11] = assay: as above; type: in vivo, Echinochloa crus-galli L.; details: submerged application at 0.5 leaf stage, visually observed 14 days after application, 0 = non-treated, 100 = complete kill
Summary of the method: as §3

redroot pigweed [12] = assay: Test Example 1: foliage treatment, upland pot test; type: in vivo, Amaranthus retroflexus L.; details: active ingredient 500 g/ha, observed 18th to 23rd day, 0 = non-treated, 100 = complete kill
prickly sida [13] = assay: Test Example 1: foliage treatment, upland pot test; type: in vivo, Sida spinosa L.; details: active ingredient 500 g/ha, observed 18th to 23rd day, 0 = non-treated, 100 = complete kill
green foxtail [14] = assay: Test Example 1: foliage treatment, upland pot test; type: in vivo, Setaria viridis L.; details: active ingredient 500 g/ha, observed 18th to 23rd day, 0 = non-treated, 100 = complete kill
rice [15] = assay: Test Example 2: soil surface treatment, upland pot test; type: in vivo, Oryza sativa L.; details: active ingredient 500 g/ha, observed 20th to 28th day
Summary of the method: as §1

prickly sida [16] = assay: as above; type: in vivo, Sida spinosa L.; details: active ingredient 500 g/ha, observed 20th to 28th day
Summary of the method: as §1

corn [17] = assay: as above; type: in vivo, Zea mays L.; details: active ingredient 500 g/ha, observed 20th to 28th day
Summary of the method: as §1

barnyardgrass [18] = assay: Test Example 1: foliage treatment, upland pot test; type: in vivo, Echinochloa crus-galli L.; details: active ingredient 500 g/ha, observed 18th to 23rd day, 0 = non-treated, 100 = complete kill
Summary of the method: as §2

japanese ribbon wapato = assay: Test Example 3: paddy pot test, application under submerged conditions; type: in vivo, Sagittaria pygniaea; details: submerged application at primary leaf stage, visually observed 14 days after application, 0 = non-treated, 100 = complete kill
Summary of the method: as §3

soybean [19] = assay: Test Example 2: soil surface treatment, upland pot test; type: in vivo, Glycine max Merr.; details: active ingredient 500 g/ha, observed 20th to 28th day
Summary of the method: as §1

rice (var. Nihonbare) = assay: Test Example 3: paddy pot test, transplanted rice; type: in vivo, Oryza sativa L.; details: applied 4th day after transplantation, visually observed 21st day after application, 0 = non-treated, 100 = complete kill
Summary of the method: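 Rice (2-leaf stage) was transplanted 3 cm deep into puddled, leveled paddy soil under 3–4 cm flooding. On day 4 after transplanting, diluted wettable powder or emulsifiable concentrate was pipetted onto the water at a predetermined active-ingredient dose. Growth control (0 = untreated, 100 = complete kill) was scored visually 21 days later.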

Compound	Growth controlling degree (%) Crabgrass (crabgrass [1]) [%]	Growth controlling degree (%) Soybean (soybean [2]) [%]	Growth controlling degree (%) Redroot pigweed (redroot pigweed [3]) [%]	Growth controlling degree (%) Velvetleaf (velvetleaf [4]) [%]	Growth controlling degree (%) Green foxtail (green foxtail [5]) [%]	Growth controlling degree (%) Crabgrass (crabgrass [6]) [%]	Growth controlling degree (%) Corn (corn [7]) [%]	Growth controlling degree (%) Velvetleaf (velvetleaf [8]) [%]	Growth controlling degree (%) Barnyardgrass (barnyardgrass [9]) [%]	Growth controlling degree (%) Rice (rice [10]) [%]	Growth controlling degree (%) Redroot pigweed (redroot pigweed [12]) [%]	Growth controlling degree (%) Prickly sida (prickly sida [13]) [%]	Growth controlling degree (%) Green foxtail (green foxtail [14]) [%]	Growth controlling degree (%) Rice (rice [15]) [%]	Growth controlling degree (%) Prickly sida (prickly sida [16]) [%]	Growth controlling degree (%) Corn (corn [17]) [%]	Growth controlling degree (%) Barnyardgrass (barnyardgrass [18]) [%]	Growth controlling degree (%) Soyabean (soybean [19]) [%]	Growth controlling degree (%) Japanese bulrush (japanese bulrush; active ingredient 125 g/ha) [%]	Growth controlling degree (%) Barnyardgrass (barnyardgrass [11]; active ingredient 125 g/ha) [%]	other results
CC(C)C(c1cnccc1C(F)(F)F)N(C)C(=O)Cc1ccc(F)c(C(F)(F)F)c1 (centres unmarked) [I-61]	80	70	70	60	70	80	30	80	20	30	70	80	90	10	98	10	30	20	–	–	Growth controlling degree (%) Japanese bulrush (japanese bulrush; active ingredient 250 g/ha): 0%; Growth controlling degree (%) Barnyardgrass (barnyardgrass [11]; active ingredient 250 g/ha): 95%; Growth controlling degree (%) Japanese ribbon wapato (japanese ribbon wapato; active ingredient 250 g/ha): 20%; Growth controlling degree (%) Rice (rice (var. Nihonbare); active ingredient 250 g/ha): 10%
CC(C)C(c1cnccc1C(F)(F)F)N(C)C(=O)Cc1ccc(C(F)(F)F)c(F)c1 (centres unmarked) [I-62]	98	30	70	50	60	60	10	90	60	10	80	70	40	10	98	10	20	10	–	–	Growth controlling degree (%) Japanese bulrush (japanese bulrush; active ingredient 250 g/ha): 30%; Growth controlling degree (%) Barnyardgrass (barnyardgrass [11]; active ingredient 250 g/ha): 98%; Growth controlling degree (%) Japanese ribbon wapato (japanese ribbon wapato; active ingredient 250 g/ha): 0%; Growth controlling degree (%) Rice (rice (var. Nihonbare); active ingredient 250 g/ha): 20%
CC(C)C(c1cnccc1Cl)N(C)C(=O)Cc1cccc(F)c1 (centres unmarked) [I-65]	90	20	50	10	60	60	0	70	60	20	90	80	10	20	10	30	10	0	90	98	Growth controlling degree (%) Japanese ribbon wapato (japanese ribbon wapato; active ingredient 125 g/ha): 60%; Growth controlling degree (%) Rice (rice (var. Nihonbare); active ingredient 125 g/ha): 0%
CC(C)C(c1cnccc1Cl)N(C)C(=O)Cc1ccccc1F (centres unmarked) [I-66]	90	50	60	40	50	70	40	70	80	10	50	60	70	40	30	10	20	50	90	98	Growth controlling degree (%) Japanese ribbon wapato (japanese ribbon wapato; active ingredient 125 g/ha): 10%; Growth controlling degree (%) Rice (rice (var. Nihonbare); active ingredient 125 g/ha): 10%
CC(C)C(c1cnccc1Cl)N(C)C(=O)Cc1ccc(F)cc1 (centres unmarked) [I-67]	95	50	40	60	95	90	0	60	90	10	60	80	70	10	80	40	50	10	98	100	Growth controlling degree (%) Japanese ribbon wapato (japanese ribbon wapato; active ingredient 125 g/ha): 60%; Growth controlling degree (%) Rice (rice (var. Nihonbare); active ingredient 125 g/ha): 0%
